Measured values taken from patent publication US20260325417A1, “TOPICAL SKIN COMPOSITION CONTAINING 1,3-PROPANEDIOL AS ACTIVE INGREDIENT FOR MAINTAINING MICROBIOME BALANCE IN SKIN” (ACTIVON CO.,LTD., priority 2022, published 2026).

Key:
[1] = test system: Staphylococcus aureus ATCC 6538; assay: Growth of harmful skin bacteria, single culture with 1,3-propanediol (absorbance 600 nm); format: cell-based; details: for Effect on the growth of harmful bacteria (S. aureus): absorbance 600 nm, 2 to 16 hours vs control
Procedure: (§1) • 1) Staphylococcus epidermidis ATCC 12228 and Staphylococcus aureus ATCC 6538 strains were obtained from ThermoFisher Scientific and cultured in tryptic soy broth (culture conditions: 32° C. for 18 hours). After culturing, they were diluted with 0.85% NaCl to adjust the absorbance (600 nm) to 0.5-0.6. • 2) 1,3-propanediol was obtained from Sigma-Aldrich. • 3) 2-methyl-1,3-propanediol, 1,3-butanediol, 2,3-butanediol, 1,2-pentanediol, and 1,2-hexanediol were all obtained from Sigma-Aldrich. • 4) Fructan was obtained from Sigma-Aldrich. • 5) Yeast extract was obtained from Sigma-Aldrich.
The effect of 1,3-propanediol on the growth of Staphylococcus aureus ATCC 6538 was analyzed.
(§2) For this purpose, 1,3-propanediol was diluted with 10% tryptic soy broth to prepare concentrations of 0.05, 0.1, 0.2, 0.5, 1.0, 3.0, 5.0, 10, 20, and 25 wt %.
After adding 1,3-propanediol prepared at each concentration to 10% tryptic soy broth, S. aureus was inoculated to achieve a concentration of 1% (v/v).
(§3) Afterwards, the cells were cultured at a temperature of 32° C. for 24 hours, and the absorbance (600 nm) was measured at 2-hour intervals to analyze the growth of beneficial skin bacteria.
(§4) At this time, 10% tryptic soy broth to which 1,3-propanediol was not added was set as a control group.
The criteria for determining the effect on the growth of harmful bacteria were as follows: when the absorbance (600 nm) was measured while culturing for 2 to 16 hours after inoculation of S. aureus, if the absorbance was lower than that of 10% tryptic soy broth (control group) to which 1,3-propanediol was not added, it was determined that the growth of S. aureus was inhibited. If there was no difference in absorbance, it was determined that there was no effect.

[2] = test system: Staphylococcus epidermidis ATCC 12228; assay: Growth of beneficial skin bacteria, single culture with 1,3-propanediol (absorbance 600 nm); format: cell-based; details: for Effect on the growth of beneficial bacteria (S. epidermidis): absorbance 600 nm, 2 to 16 hours vs control
Procedure: as §1
The effect of 1,3-propanediol on the growth of Staphylococcus epidermidis ATCC 12228 was analyzed.
as §2
After adding the prepared 1,3-propanediol at each concentration to 10% tryptic soy broth, S. epidermidis was inoculated to achieve a concentration of 1% (v/v).
as §3, §4
The criteria for determining the effect on the growth of beneficial bacteria were as follows: when the absorbance (600 nm) was measured while culturing for 2 to 16 hours after inoculation of S. epidermidis, if the absorbance was higher than that of 10% tryptic soy broth (control group) to which 1,3-propanediol was not added, it was determined that the growth of S. epidermidis was promoted. If there was no difference, it was determined that there was no effect, and if the absorbance was lower, it was determined that there was inhibition. […] As a result, it can be seen that when the concentration of 1,3-propanediol is in a specific range exceeding 0.05 wt % and less than 20 wt %, it promotes the growth of S. epidermidis.

[3] = test system: Staphylococcus aureus ATCC 6538; assay: Combination of 1,3-propanediol and fructan, growth of harmful bacteria; format: cell-based; details: 1,3-propanediol 1.5 wt %; fructan 0.00 wt %
Procedure: as §1
(§5) In order to evaluate the effect of 1,3-propanediol and fructan on the skin microbiome, the effect on the growth rate of Staphylococcus epidermidis ATCC 12228, a representative beneficial skin bacterium, and Staphylococcus aureus ATCC 6538, a harmful skin bacterium, was confirmed. Staphylococcus epidermidis ATCC 12228 and Staphylococcus aureus ATCC 6538 were cultured in tryptic soy broth at 32° C. for 18 hours or more, then diluted with 0.85% NaCl and adjusted to have an absorbance (600 nm) of 0.5 to 0.6.
(§6) S. epidermidis and S. aureus prepared above were inoculated to achieve a concentration of 1% (v/v) in 10% tryptic soy broth to which 1,3-propanediol was added at a fixed concentration of 1.5 wt % and fructan was added at each concentration in the table below. […]

S. aureus [4] = assay: Comparison of diol compounds, growth of harmful bacteria; format: cell-based, Staphylococcus aureus
From the text: (§7) FIG. 4 illustrates the results of a comparative analysis of the effects of diol compounds, specifically 1,3-propanediol, 2-methyl-1,3-propanediol, 1,3-butanediol, 2,3-butanediol, 1,2-pentanediol, and 1,2-hexanediol on the growth of harmful bacteria (upper graph) and beneficial bacteria (lower graph). FIG. 4A: 1,3-propanediol, FIG. 4B: 2-methyl-1,3-propanediol; FIG. 4C: 1,3-butanediol; FIG. 4D: 2,3-butanediol; FIG. 4E: 1,2-pentanediol; FIG. 4F: 1,2-Hexanediol.
as §1

S. epidermidis [5] = assay: Combination of 1,3-propanediol and yeast extract, growth of beneficial bacteria; format: cell-based, Staphylococcus epidermidis; details: 1,3-propanediol 1.5 wt %; yeast extract 0.00 wt %
[6] = test system: Staphylococcus epidermidis ATCC 12228; assay: Combination of 1,3-propanediol and fructan, growth of beneficial bacteria; format: cell-based; details: 1,3-propanediol 1.5 wt %; fructan 0.00 wt %
Procedure: as §1, §5, §6

S. aureus [7] = assay: Combination of 1,3-propanediol and yeast extract, growth of harmful bacteria; format: cell-based, Staphylococcus aureus; details: 1,3-propanediol 1.5 wt %; yeast extract 0.00 wt %
Procedure: as §1, §5, §6

S. epidermidis [8] = assay: Comparison of diol compounds, growth of beneficial bacteria; format: cell-based, Staphylococcus epidermidis; set-up: key to Effect on the growth of beneficial bacteria (S. epidermidis): ++: Growth promotion; +: No effect; −: Growth inhibition; − −: 50% or more growth inhibition
From the text: as §7, §1

[9] = when the concentration increases

OCCCO [1,3-propanediol]
Effect on the growth of harmful bacteria (S. aureus) ([1]; 0.05 wt %): No effect | Effect on the growth of harmful bacteria (S. aureus) ([1]; 0.1 wt %): No effect | Effect on the growth of harmful bacteria (S. aureus) ([1]; 0.2 wt %): No effect | Effect on the growth of harmful bacteria (S. aureus) ([1]; 0.5 wt %): No effect | Effect on the growth of harmful bacteria (S. aureus) ([1]; 1.0 wt %): No effect | Effect on the growth of harmful bacteria (S. aureus) ([1]; 3.0 wt %): Inhibited | Effect on the growth of harmful bacteria (S. aureus) ([1]; 5.0 wt %): Inhibited | Effect on the growth of harmful bacteria (S. aureus) ([1]; 10 wt %): Inhibited | Effect on the growth of harmful bacteria (S. aureus) ([1]; 20 wt %): Inhibited | Effect on the growth of harmful bacteria (S. aureus) ([1]; 25 wt %): Inhibited | Concentration that did not inhibit the growth of S. aureus ([1]; single culture): ≤ 1.0 wt % | Effect on the growth of beneficial bacteria (S. epidermidis) ([2]; 0.05 wt %): No effect | Effect on the growth of beneficial bacteria (S. epidermidis) ([2]; 0.1 wt %): Promoted | Effect on the growth of beneficial bacteria (S. epidermidis) ([2]; 0.2 wt %): Promoted | Effect on the growth of beneficial bacteria (S. epidermidis) ([2]; 0.5 wt %): Promoted | Effect on the growth of beneficial bacteria (S. epidermidis) ([2]; 1.0 wt %): Promoted | Effect on the growth of beneficial bacteria (S. epidermidis) ([2]; 3.0 wt %): Promoted | Effect on the growth of beneficial bacteria (S. epidermidis) ([2]; 5.0 wt %): Promoted | Effect on the growth of beneficial bacteria (S. epidermidis) ([2]; 10 wt %): Promoted | Effect on the growth of beneficial bacteria (S. epidermidis) ([2]; 20 wt %): No effect | Effect on the growth of beneficial bacteria (S. epidermidis) ([2]; 25 wt %): Inhibited | Concentration that inhibited the growth of S. epidermidis ([2]; single culture): exceeded 25 wt % | Effect on the growth of harmful bacteria (S. aureus) [3]: ++ (Significant growth inhibition (change in absorbance (decrease) 5%)) | Effect on the growth of harmful bacteria (S. aureus) (S. aureus [4]; diol compound 0.1 wt %): ++ | Effect on the growth of harmful bacteria (S. aureus) (S. aureus [4]; diol compound 1 wt %): ++ | Effect on the growth of harmful bacteria (S. aureus) (S. aureus [4]; diol compound 5 wt %): +++ (50% or more inhibition) | Effect on the growth of harmful bacteria (S. aureus) (S. aureus [4]; diol compound 10 wt %): +++ (50% or more inhibition) | Effect on the growth of harmful bacteria (S. aureus) (S. aureus [4]; diol compound 20 wt %): +++ (50% or more inhibition) | Growth of harmful bacteria (summary) (S. aureus [4]; [9]): the growth of harmful bacteria is inhibited | Effect on the growth of beneficial bacteria (S. epidermidis) (S. epidermidis [5]): + (Mild growth promotion (change in absorbance (increase) 3%)) | Effect on the growth of beneficial bacteria (S. epidermidis) [6]: + (Mild growth promotion (change in absorbance (increase) 3%)) | Effect on the growth of harmful bacteria (S. aureus) (S. aureus [7]): ++ (Significant growth inhibition (change in absorbance (decrease) 5%)) | Effect on the growth of beneficial bacteria (S. epidermidis) (S. epidermidis [8]; diol compound 0.1 wt %): ++ | Effect on the growth of beneficial bacteria (S. epidermidis) (S. epidermidis [8]; diol compound 1 wt %): ++ | Effect on the growth of beneficial bacteria (S. epidermidis) (S. epidermidis [8]; diol compound 5 wt %): + | Effect on the growth of beneficial bacteria (S. epidermidis) (S. epidermidis [8]; diol compound 10 wt %): + | Effect on the growth of beneficial bacteria (S. epidermidis) (S. epidermidis [8]; diol compound 20 wt %): + | Growth of beneficial bacteria (summary) (S. epidermidis [8]; [9]): the growth of beneficial bacteria is promoted
